Measurements reported in patent publication US5763573A, “GTPase activating protein fragments” (Chiron Corporation, priority 1995, dated 1998).

Key:
[1] = test system: ras p21 protein; assay: Filter assay of ras p21 hydrolysis of 32-P gamma-GTP with and without GAP; assay type: biochemical; conditions: FIG. 13; presence and absence of GAP; 30 minutes at room temperature
Description: The above four peptides, in the following two experiments, were tested for their abilities to inhibit the hydrolysis of GTP by ras p21 protein, in the presence and absence of GAP. The first experiment involved peptides G65, G73 and 891. It was carried out as follows: purified wild type ras p21 protein was incubated with 0.25 μM 32-P gamma-GTP in 100 mM NaPO4, pH 6.8, 0.5 mM DTT, 0.5 mM EDTA, 0.005% Na cholate, and 0.5 mg/ml BSA for 15 minutes at 30° C. The mixture was then diluted ten fold with TNM buffer (comprising 20 mM Tris-HCl, pH 7.0, 100 mM NaCl, 5 mM MgCl2). 20 μl (0.05 μg of p21) of this mixture was then combined with 2 μl of the peptide in 25 mM NaOAc, pH 5.5 and incubated for 5 minutes at room temperature. The GAP assay was initiated by the addition of 12 ng GAP in 5 μl TNM buffer with 1 mg/ml BSA or 5 μl TNM BSA buffer for the GAP independent reactions, and the resulting mixture was incubated for 30 minutes at room temperature. The samples were then filtered through nitrocellulose membranes and washed three times with cold TNM. The filters were dried and their radioactivity counted. […] In the presence of GAP, the radioactive ras p21-GTP complex is hydrolyzed to GDP and ras p21 protein, thus reducing the resulting amount of radioactive p21-GTP bound to the filter and consequently, the radioactive counts detected. […]

[2] = biological target: H-ras protein (Homo sapiens, UniProt P01112); assay: Typical GAP assay with immunoprecipitated H-ras bound to α-32P-GTP, TLC; assay type: biochemical; conditions: sufficient GAP; 60 minutes at room temperature
Description: A typical GAP assay can be carried out as follows. Approximately 0.8 micrograms of H-ras protein obtained as described by Trahey, et al., supra was bound to α-32P-GTP followed by precipitation of the complex with 13 micrograms of an anti-ras antibody, 157-181, that recognizes the carboxyl terminal end of the molecule. Specifically, 157-181 recognizes the carboxyl terminal residues at positions 157-181. Adari et al., 1988 Science, […]:518. Next, 10 micrograms of sheep-anti-mouse IgG, and 10 microliters of protein A-Sepharose beads were added. As a control, the same reactants were combined except that rat IgG replaced 157-181, and goat anti-rat IgG replaced sheep anti-mouse IgG. The pellets were washed with 20 mM tris hydrochloride, pH 7.4, containing 20 mM sodium chloride, 1 mM magnesium chloride and 1 mM DTT and resuspended in the same solution. Four microliter aliquots of the immune complex were then mixed with 10 microliters of GAP, or, as a control, buffer without GAP. After 60 minutes incubation at room temperature the Sepharose beads were washed again, and the bound nucleotides analyzed using thin layer chromatography with 1M LiCl as the solvent. […] The assay detects GAP in a semi-quantitative, dose-dependent fashion. Quantitation can be improved by scraping the relevant regions of the plate and measuring cpm in GDP by use of a gamma counter.

Chain of H-ras protein (P01112 whole entry): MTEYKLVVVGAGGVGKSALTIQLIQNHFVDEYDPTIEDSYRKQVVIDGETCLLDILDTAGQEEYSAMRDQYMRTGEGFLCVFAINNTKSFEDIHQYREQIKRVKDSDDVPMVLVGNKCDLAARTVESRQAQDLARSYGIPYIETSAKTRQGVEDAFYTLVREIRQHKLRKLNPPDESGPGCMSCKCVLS

Row | Substance | effect on hydrolysis of GTP (radioactive counts of ras p21-GTP complex on filter) [1] | hydrolysis of GTP to GDP [2]
1 | peptide G73: peptide corresponding to amino acids positions 975-990 of the full length GAP (GNVPELPDTTEHSRTD; UniProt P20936 975-990, looked up, fragment) | do not affect | –
2 | GAP: guanine triphosphatase activating protein purified from human placenta, about 115,000-120,000 daltons | – | near complete hydrolysis
